Patent publication US20040132793A1, “Pyrazole derivatives” (Pfizer Inc., priority 2002, published 2004)

Assays:
[1] = Metabolism in human hepatocytes; format: in vitro ADME; settings: cryopreserved human hepatocytes 1 million cells/ml; substrate 3 μM; 37° C., 3 hours
Method: B. Metabolism in Human Hepatocytes.
The metabolic vulnerability of the compounds of the invention in human hepatocytes may be assayed as follows.
Cryopreserved human hepatocytes are obtained from In vitro Technologies, Inc. The hepatocytes are thawed and suspended at 1 million cells/ml in 50% Krebs-Heinsleit buffer: 50% Williams E media containing 10% foetal bovine serum. The substrate concentration is 3 μM and incubations are carried out at 37° C. for 3 hours. Samples are taken at time points throughout this period and analysed using hplc-ms-ms assay.

[2] = Metabolism in human liver microsomes; format: in vitro ADME; settings: pH 7.4, human microsomes 0.5 μM cytochrome P450, substrate 1 μM, 37° C., 1 hour, read-out: t 1/2 (human microsomal)
Method: (§1) A. Metabolism in Human Liver Microsomes and Supermix™ The metabolic vulnerability of the compounds of the invention in microsomes and Supermix™ may be assayed as follows. The microsomal fraction is isolated from several human livers and the P450 content determined. Supermix™ is obtained from Gentest. Human microsomes (0.5 μM cytochrome P450) and Supermix™ (0.05 μM cytochrome P450) are added to an incubation media containing 50 mM phosphate buffer (pH7.4), 5 mM MgCl2, 1 mM NADP and an NADPH generating system consisting of isocitrate and isocitrate dehydrogenase. The substrate concentration is 1 μM and incubations are carried out at 37° C. for 1 hour. Samples are taken at time points throughout this period and analysed using hplc-ms-ms assay.

[3] = Metabolism in Supermix; format: in vitro ADME; settings: human, Supermix (Gentest), pH 7.4; Supermix 0.05 μM cytochrome P450; substrate 1 μM; 37° C., 1 hour; read-out: t 1/2 (Supermix)
Method: as §1

[4] = target: T1, purified recombinant HIV-1 reverse transcriptase (Human immunodeficiency virus type 1 group M subtype B, UniProt P04585); assay: Inhibition of HIV-1 reverse transcriptase enzyme; format: biochemical
T1 construct: purified recombinant HIV-1 reverse transcriptase (RT, EC, 2.7.7.49); made in house; host or cells: Escherichia coli
Source text: The activity of the compounds of the invention as reverse transcriptase inhibitors may be measured using the following assay.
Inhibition of HIV-1 Reverse Transcriptase Enzyme
Using purified recombinant HIV-1 reverse transcriptase (RT, EC, 2.7.7.49) obtained by expression in Escherichia Coli, a 96-well plate assay system is established for assaying a large number of samples using either the Poly(rA)-oligo(dT) Reverse Transcriptase [3H]-SPA enzyme assay system (Amersham NK9020) or the [3H]-flashplate enzyme assay system (NEN-SMP 103) and following the manufacturer's recommendations. The compounds are dissolved in 100% DMSO and diluted with the appropriate buffer to a 5% final DMSO concentration. The inhibitory activity is expressed in percent inhibition relative to DMSO control.

## Cc1c(Oc2cc(C#N)cc(C#N)c2)c(C2CC2)nn1CCO [Example 1, 5-{[3-Cyclopropyl-1-(2-hydroxyethyl)-5-methyl-1H-pyrazol-4-yl]oxy}isophthalonitrile]
[1]
  unbound hepatocyte clearance: < 9 mL/min/kg
[2]
  half-life at 1 μM: > 2 h
[3]
  half-life at 1 μM: > 2 h
[4]
  IC50: 295 nM
